For data set [1], the system named is MCF-7 cells. The data set is described as follows: transwell chamber migration assay, MCF-7 cells. Particulars: FIG. 17B. It is filed as cell-based, human. Here is the method:
(§1) MCF-7 cells were left untreated or treated with an inhibitor of DNA methyltransferase, […] (5-aza-dC). Expression of C43 was monitored by a real time RT PCR approach and cell migration ability was determined by a transwell chamber migration assay.

Data set [2] relates to MDA-MB-231 cells. As to the kind of experiment: transwell chamber migration assay, MDA-MB-231 cells. It is filed as cell-based, human.
The subject of data set [3] is C43. As to the kind of experiment: C43 expression by real time RT PCR in MCF-7 cells. Type of data set: cell-based, human. The following applies: MCF-7 cells treated vs untreated, FIG. 17A. Here is the method:
as §1

The test system of data set [4] is C43. The data set is described as follows: C43 expression by real time RT PCR in MDA-MB-231 cells. Type of data set: cell-based, human.
For data set [5], the system named is human breast cancer MDA-MB-231 cells. The data set is described as follows: 3D invasion assay with well-established inhibitory compounds. The following applies: data not shown. Type of data set: cell-based. The source says: To increase the throughput as well as to standardize and automate the readout using imaging software, we have designed and tooled a 96-well plate with a 2.1 mm3 pit in the center of each well. This tooled plate restricts the cell/matrix mixture to an identical pit (size and location) within each well, thus permitting automated microscopic imaging of cell invasion (FIG. 19). To test if imaging acquisition and data analysis can be automated, we have employed a motorized stage (Prior Scientific, Inc.) installed on the existing Nikon TE2000s inverted microscope. The automated microscopy system is controlled by the NIS-Elements imaging software (Nikon) for imaging acquisition and data analysis. Using a 10× objective, we have shown that it takes 6 minutes to scan the entire 96 well plate. To quantitatively analyze cells that invade into the matrix, using both phase contrast and nuclear-stained images is optimal.
To establish the efficacy of the assay for screening libraries, we have tested the effect of well-established inhibitory compounds on cell invasion. […] Moreover, this 3D invasion assay is simple, precise, easy to replicate, and has multiple applications.

Data set [6] deals with HT1080 and/or human breast cancer MDA-MB-231 cell. The data set is described as follows: 3D invasion assay, positive controls. The following applies: positive controls in culture medium, HT1080 and/or MDA-MB-231 cells. It is filed as cell-based. Here is the method:
HT1080 cells and/or human breast cancer MDA-MB-231 cells (4×10^7/ml) mixed with type I collagen (1.5 mg/ml at final) are dispensed into the cell-holding wells in invasion assay plates (2 ul/well, optimum volume) using the liquid handling system at 4° C. working temperature to prevent the collagen from solidifying within the liquid handling system. After dotting, the plate is inserted in an incubator chamber at 37° C. for 15 min followed by the addition of type I collagen to cover the gelled cell aggregates. […] Images are acquired from transmission (phase contrast) and fluorescence (DAPI) sources by an external light shutter device that gathers two images per time point in time-lapse sequences. […] Data analysis will be performed using NIS-Element imaging software (Nikon) based on pre-determined criteria.
The following steps will be performed to screen the compound library targeting cancer cell migration/invasion using the automated 3D invasion HTS system: 1) Cell plating: HT1080 cells and/or human breast cancer MDA-MB-231 cells are used for selecting inhibitory compounds because these cells display invasive ability and represent mesenchymal cancer cells. […] Images acquired by an automated Nikon inverted microscope (TE2000s) equipped with a motorized stage (Prior Scientific) are then analyzed using the NIS-Elements software (Nikon). […]

In data set [7] the test system is C43. The data set is described as follows: shRNA effect on endogenous C43 expression, real time RT PCR in MDA-MB-435 cells. It is filed as cell-based, human. Particulars: retroviral shRNA delivery. The protocol: A) Overexpresison of C43 enhanced cell migration. COS-1 cells and MCF-7 cells transfected with vector control (1 & 4), C43 (2 & 5) or MT1-MMP (3 & 6, positive control) cDNAs were evaluated by a Transwell Chamber migration assay after 6 hours. The cells were fixed and migratory cells were counted under microscopy with 20× objective. Ten fields were examined for each transfected cells. Each bar represents the mean±SE. B) Enhanced cell migration in MCF-7 cells expressing C43-GFP chimera. Minimally invasive human breast cancer MCF-7 cells stably transfected with GFP control and C43-GFP chimeric cDNA were mixed with type I collagen and dotted onto a 96-well plate. […] Cell migration was determined under microscopy. […]
Small interfering oligonucleotides specific for either C43 or luciferase (control) to express short hairpin RNA (shRNA) were designed using an online software system (Block-iT RNAi Designer; Invitrogen) for mammalian RNA interference. Specific 21-nucleotide sequences spanning nucleotides […] of the human C43 gene (see FIG. 2: SEQ ID NO: 1) and nucleotides 103-123 of luciferase from firefly Pyrocoelia pectoralis as a control were synthesized by Operon Biotechnologies, Inc. Annealed double stranded oligonucleotides were cloned into the RNAi-Ready pSIREN-Retra Q vector (Clontech). […]

The subject of data set [8] is MDA-MB-435 cells. The data set is described as follows: 3D invasion assay, MDA-MB-435 cells expressing shRNA. Type of data set: cell-based, human. The following applies: 3D invasion assay after 8 days, vs Luciferase shRNA control. From the text:
(§2) Left panel: Loss of invasive ability of MDA-MB-435 cells by downregulation of C43. MDA-MB-435 cells expressing Luciferase shRNA control, C43 shRNA-2 and -3 were examined by the 3D invasion assay after 8 days. […] MDA-MB-435 cells expressing Luciferase shRNA shRNA, C43 shRNA-2 and -3 cultured on plastic dishes were observed under inverted microscopy with differential interference contrast (DIC).
The following methodology permits the detection of cancer cell invasion into a collagen matrix and the inhibitory activity of anti-cancer drugs. This assay is useful in identifying pharmacologic agents (drugs) that interfere with cancer progression. […] Invading cancer cells leaving the perimeter of the original collagen droplet are readily visualized extending into the surrounding collagen matrix after 18 h incubation. Both qualitative and quantitative analyses are performed microscopically. The invasive ability of cancer cells (cells outside the original droplet), as well as the effect of pharmacologic agents on the cancer cell invasion, can be determined microscopically. The effect of pharmacologic agents on invasion of cancer cells is determined by counting invading cells in the presence versus the absence of pharmacologic agents. […] This assay will be readily adaptable for high throughput screening of libraries of compounds that may be useful for cancer treatment. […]

For data set [9], the system named is MDA-MB-435 cells. As to the kind of experiment: cell proliferation of MDA-MB-435 cells expressing shRNA. It is filed as cell-based, human. The following applies: MDA-MB-435 cells in culture.
Text: as §2
(§3) As summarized in FIG. 1, 2×10^6 MDA-MB-435 cancer cells expressing either C43 shRNA or luciferase shRNA control were orthotopically injected into mammary tissue of nu/nu immunodeficient mice. Tumor growth was measured with calipers twice a week. Tumor size was determined using the formula: (tumor size=tumor diameter(×)square root of tumor diameter(÷)2). […] In contrast to in vivo tumor growth, downregulation of C43 had no effect on cancer MDA-MB-435 cell proliferation in tissue culture (not shown), emphasizing the unique role of C43 on protease-independent aspects of cell invasion and tumor progression.

The test system of data set [10] is MDA-MB-435 cells. As to the kind of experiment: cell morphology of MDA-MB-435 cells expressing shRNA (DIC microscopy). Particulars: MDA-MB-435 cells cultured on plastic dishes. Type of data set: cell-based, human.
Text: as §2

The test system of data set [11] is MDA-MB-435 cancer cells. The data set is described as follows: orthotopic implantation of MDA-MB-435 cells expressing shRNA into immunodeficient mice. It is filed as in vivo, nu/nu immunodeficient mice.
Text: FIG. 1 depicts tumor growth and survival curves comparing the effect of C43 shRNA (SEQ ID NO: 2) (FIG. 1A) and control luciferase shRNA (FIG. 1B) on tumor appearance, progression, and survival following orthotopic implantation of MDA-MB-435 breast cancer cells into immunodeficient mice.
as §3

For data set [12], the system named is C43. As to the kind of experiment: Northern blot analysis of C43 in HT1080 cells. Type of data set: cell-based, human. Particulars: FIG. 11A. From the text: Total RNAs of MCF-7 cells, HT1080 or HT1080 cells treated with Con A were probed with p^32-labeled C43 probe. A single 9.5 kb mRNA transcript corresponding to C43 was detected (arrowhead). Con A enhances C43 expression in HT1080 cells. B) Expression of C43 in transfected COS-1 cells: COS-1 cells transfected with vector or C43-Myc chimera were examined by Western blotting using anti-Myc antibody. C43 was detected as a 150 kDa protein band along with degradation products.

For `Nc1ncn([C@H]2C[C@H](O)[C@@H](CO)O2)c(=O)n1` [5-aza-dC, a-aza-deoxycytined], the cell migration entry is recorded as “enhanced” in data set [1] and “No effect” in [2]. Moreover, the “endogenous C43 expression” value in data set [3] is recorded as “increased”. In addition, the C43 expression entry in data set [4] is reported as “No effect”.
For `COc1cccc(-c2cc(=O)c3ccccc3o2)c1N` [PD98059], in data set [5], the “inhibition of cell invasion” value is reported as “dose-dependent inhibition”. Also, the cell invasion entry in data set [6] is reported as “block”.
Take “C43 shRNA-2: C43 shRNA sequence GTGGAAGACCATATTGAATAT, nt 1104”: in [7], the “endogenous C43 expression” value is given as “significantly decrease”. Moreover, the cell invasive ability entry in [8] was “loss of cell invasive ability”. In data set [9], the cell proliferation result is recorded as “does not alter”. Also, the cell morphology entry in data set [10] is “Change of cell morphology”.
The matching figures for “C43 shRNA-3: C43 shRNA sequence GCCTCTCCATCCATCATACATT, nt 1997”: “significantly decrease”, “loss of cell invasive ability”, “does not alter” and “Change of cell morphology”.
Regarding “C43 shRNA: 21-nucleotide C43 shRNA CCTCTCCATCCATCATACATT spanning nucleotides 1735-1757 of SEQ ID NO: 1 (chemistry not given here; listed as Homo sapiens)”, in data set [9], the cell proliferation result is “no effect”. For the same compound, the “tumor appearance and progression” value in [11] (2×10^6 MDA-MB-435 cells orthotopically injected into mammary tissue, vs luciferase shRNA control, FIG. 1A) is “delayed”. The survival entry in [11] (orthotopic MDA-MB-435, vs luciferase shRNA control mice, FIG. 1B) is given as “prolonged”.
Consider Concanavalin A [Con A], for which the C43 expression result in [12] is “enhances”.

The record behind these values is patent publication US8900851B2, “Multi-well platform” (The Research Foundation for the State University of New York, priority 2008, dated 2014).
